Turning to `C#CCN1CCCc2ccc(OC(=O)Nc3ccccc3OC)cc21`, the melting point came to 83 °C.

`CCCCN(CCCC)CCCOc1ccc(S(=O)(=O)c2ncsc2-c2ccccc2)cc1` showed a melting point of 110 °C. With `COCCOc1cccc(-c2ccnc3c(C(=O)c4cccs4)cnn23)c1`, the melting point lay within 112 to 116 °C. `O=c1cnc2c(NC(CO)CO)nc(SCc3cccc(Cl)c3F)nc2[nH]1`: the melting point lay in the range of 218 to 220 °C. In turn, `O=C(O)c1cc(Br)no1` displayed a melting point of 176 to 177 °C.

Consider `CN1CCN(c2ccc(NC(=O)C3(C)CC3)cc2C(F)(F)F)C1=O`, for which the melting point fell in the range of 90 to 91 °C. The value for `C=CCOc1ccc(-c2ccc(C(=O)OC)cc2)cc1` was 149 °C; that for `COc1cc2ncnc(N3CCCCc4ccc(Br)cc43)c2cc1OC` was 209 to 217 °C. With `N#CC(NC(=O)c1ccnc(Cl)c1)c1cccs1` (configuration not stated), the melting point fell in the range of 123 to 125 °C. The same measure for `CC(=O)c1c(O)cccc1OCC(O)COc1cc(C)ccc1C` (configuration not stated): 104 to 106 °C; for `COc1ccc2ccc(NC(=O)c3cccc(N(C)C)c3)nc2n1`: 130 °C; for `CC1(C)COC(c2ccccc2S(N)(=O)=O)=N1`: 142 to 146 °C. The compound `Cc1ncn(Nc2cccc(Cl)c2)c1-c1cccc(Br)c1` registered a melting point of 164 °C.

On to `Nc1ccc(-c2noc3cc(F)ccc23)cc1[N+](=O)[O-]`, for which the melting point was 239 °C.

For `CCNCC1CCN(c2c(F)c(F)c3c(=O)c(C(=O)O)cn(C4CC4)c3c2F)C1` (configuration not stated), the melting point was in the range of 247 to 248 °C.

On to `COc1ccc(C(=O)Nc2ccccc2)cc1NCc1cc(C)cc(C)c1`, for which the melting point is 168 to 170 °C. In the case of `C#CCN1CCC[C@H](NCc2ccccc2OC)[C@@H]1c1ccccc1` (relative stereo), the melting point fell in the range of 147 to 149 °C.

`CCc1nnc(-c2ccc(NC=O)cc2)n1-c1ccccc1OC`: the melting point was 250 °C. For the compound `COc1cc2c(cc1Nc1ncc(Cl)c(Nc3ccccc3S(=O)(=O)N(C)C)n1)CCN(CCO)CC2`, the melting point fell in the range of 150 to 152 °C. For `Cc1cc([N+](=O)[O-])ccc1Oc1cncc(Cl)c1`, the melting point lay within 80 to 82 °C. `C[C@@H]1Cc2cc(N3C[C@H](CN=[N+]=[N-])OC3=O)ccc2N1C(=O)OCc1ccccc1` returned a melting point of 192 to 193 °C. For `CCCCCC(C)C(C)c1cc(O)c2c3c(c(=O)oc2c1)SCCC3` (configuration not stated), the melting point is 131 to 133 °C.

`CC(C)c1cc(C=CC(=O)Nc2cccc(C(=O)O)c2)oc1C(C)C`: the melting point lay in the range of 220 to 222 °C. With `O=[N+]([O-])c1c(NCCO)cccc1NCCO`, the melting point is 103 to 104 °C. `CC(C)(C)N1CCN(c2cc3c(cc2F)c(=O)c(C(=O)O)cn3C(C)(C)C)CC1` returned a melting point greater than 270 °C. The value for `CC(C)(C)OC(=O)OCc1ccc(COC(=O)OC(C)(C)C)cc1` was 71 to 74 °C; that for `CCn1c(-c2sc(NC(=O)c3ccncc3)nc2-c2ccco2)cccc1=O` was greater than 300 °C. `CC(C)CC(COc1ccc(-c2ccc(C#N)cc2)cc1)N(O)C=O` (configuration not stated) gave a melting point of 112 to 113 °C. The value for `O=C(/C=C/c1ccccc1)NCCC1CCN(Cc2ccccc2)CC1` was 125 to 127 °C; that for `O=Cc1cccc(-c2nnn[nH]2)c1` was 185 to 189 °C.

`NCC(O)C1COc2ccccc2O1` (configuration not stated): the melting point lay in the range of 86 to 88 °C. For the compound `COc1ccc(S(=O)(=O)Nc2c(C)c(C)c3c(c2C)C(c2ccc(C(C)C)cc2)C(C)(C)O3)cc1` (configuration not stated), the melting point was 206 to 208 °C. `Nc1ccc2c(=O)n3c(nc2c1)C(=Cc1ccccc1)CC3` came in with a melting point of 268 to 270 °C.

`Nc1nc(O)c2cc(C=Cc3ccc(C(=O)O)cc3)cnc2n1` displayed a melting point greater than 250 °C.

Turning to `CC(C)(C)c1cc(C(=O)NNC(=O)c2occ(-c3ccccc3)c2-c2ccccc2)ccc1O`, the melting point lay within 244 to 247 °C. `CCN(CC)c1ccc(N2C[C@H](CNC(=O)c3ccc(Cl)s3)OC2=O)cc1` registered a melting point of 181 °C. In the case of `CCCCC[C@H]1CC[C@H](c2cnc([C@H]3CC[C@H](C#N)CC3)nc2)CC1`, the melting point is 110 °C. With `COc1ccc2[nH]c3c(c4c(c5c6cc(OC)ccc6n(C)c35)C(=O)N(C)C4=O)c2c1`, the melting point is greater than 330 °C.

Compound `CC(C)c1cn(C)cc(-c2ccc(Cl)c(C(F)(F)F)c2)c1=O` yielded a melting point of 85 to 87 °C. The value for `CC(Oc1ccc(Cl)cc1Cl)c1ccnc2ncnn12` (configuration not stated) was 137 to 138 °C; that for `Cc1nc(Cn2c(=O)sc3cc(F)c([N+](=O)[O-])cc32)no1` was 192 to 193 °C; that for `O=c1[nH]c(=O)c2cc(Oc3ccc(F)cc3F)ncc2[nH]1` was greater than 300 °C.

As to `O=C(NC1CCCCC1)c1c(O)c2cscc2[nH]c1=O`, the melting point is 244 °C. Compound `O=C(Nc1ccc(-n2nc(C(F)(F)F)cc2OC(F)F)cc1)c1ccncc1F` came in with a melting point of 135 to 136 °C.

In the case of `CCOC(=O)c1ccccc1-n1c(=O)[nH]c2ccccc2c1=O`, the melting point lay within 196 to 197 °C. Compound `CC(=O)/C=C(\C)c1ccc(C2CCCCC2)cc1` returned a melting point of 49 to 50 °C.

The compound `O=[N+]([O-])c1cc(Cl)ccc1NCCO` had a melting point of 98 to 100 °C. `CC(C)(C)C(NC(=O)c1ccc(Cl)cc1)Nc1c(Nc2cccnc2F)c(=O)c1=O` (configuration not stated) returned a melting point of 231 to 234 °C. The compound `CN1CCN2c3ccc(Cl)cc3C(c3ccco3)=[N+]([O-])CC2C1` (configuration not stated) gave a melting point of 202 to 204 °C. With `CC(C)(C)OC(=O)NC(Cc1cc(C(=O)c2cc(C(F)(F)F)cc(C(F)(F)F)c2)ccc1[N+](=O)[O-])C(=O)OC(C)(C)C` (configuration not stated), the melting point was in the range of 176 to 177 °C. In the case of `CCOC(=O)Cc1nc(-c2ccccc2)oc1-c1ccsc1`, the melting point is 90 to 91 °C. Turning to `O=[N+]([O-])c1ccc2c(c1)NCC(C(F)F)(C(F)F)O2`, the melting point is 150 to 152 °C.

`CCNCCc1c[nH]c2ccc(Cn3cncn3)cc12`: the melting point fell in the range of 106 to 107 °C. The same measure for `C=C(C)COc1ccc(C(=O)C=Cc2cccc(OC)c2)c(O)c1`: 97 to 100 °C; for `O=C(Nc1cccnn1)N1CCN(c2nccc(-c3ccc(F)cc3)n2)CC1`: 168 to 169 °C. The compound `COc1ccc(N2CCN(c3c(C)c(C)c4c(c3C)C(N3CCCCCC3)C(C)(C)O4)CC2)cc1` (configuration not stated) yielded a melting point of 127 to 128 °C. `CCOC(=O)C(C)(C)c1ccc2c(c1)Nc1ccccc1S2`: the melting point fell in the range of 96 to 99 °C. `CN1CCC(c2cc3c(N(C)C)cccc3c(=O)[nH]2)CC1` returned a melting point of 216 to 218 °C.

As for `Cc1ccc(Cn2c3c(c4cc(OCc5ccccc5)ccc42)C(=O)C(=O)OC3)cc1`, the melting point lay in the range of 206 to 207 °C. The value for `O=C(C1CCCCC1)N(CCN1CCN(c2cccc3cccnc23)CC1)c1ccccc1OC(F)(F)F` was 142 to 143 °C; that for `CN(C)C(=O)CC(c1ccc(OC(F)F)c(OCC2CC2)c1)N1Cc2cccc(N)c2C1=O` (configuration not stated) was 70 to 72 °C. The same measure for `CCCCCc1ccc([C@H]2CC[C@H](c3ccc(C#N)cc3)CC2)cc1`: 80 °C. Consider `Cc1cccc(NC(=O)NC2C(=O)N(C)c3ccccc3N(C34CC5CC(CC(C5)C3)C4)C2=O)c1` (configuration not stated), for which the melting point lay within 245 to 247 °C. The value for `CC(C)(C)c1cc(C(=O)O)ccc1OCc1ccccc1` was 213 to 214 °C; that for `Cc1nc2c(N)nc3c(c2n1CCCCS(=O)(=O)c1ccc(F)cc1)CCCC3` was 159 to 162 °C. On to `COc1cc2c(cc1OC(C)C)-c1c(-c3cccs3)c3c(n1CC2)C(=O)N(C(C)C)CCN(C(=O)OC(C)(C)C)C3`, for which the melting point was 205 to 206 °C. The value for `CC1(C)CCc2c(N3CCSCC3)nc3sc4c(NCc5cccnc5)ncnc4c3c2C1` was 257 to 258 °C. With `Clc1ccc(-c2[nH]nc3c2Cc2ccccc2-3)cc1`, the melting point was in the range of 266 to 268 °C.

As to `CC(C)(C)OC(=O)N1CCc2c(cc(O)c(O)c2F)C(c2ccc(O)cc2)C1` (configuration not stated), the melting point is 100 to 105 °C. On to `Cc1cc(C)c(-c2nc(Oc3ccccc3)nc(Oc3ccccc3)n2)c(C)c1`, for which the melting point lay in the range of 135 to 143 °C. In the case of `C[C@H]1[C@H](O)[C@H](O)C(S(=O)(=O)c2ccccc2)=C[C@H](C)[C@H]1O[Si](C)(C)C(C)(C)C`, the melting point fell in the range of 117 to 119 °C. In turn, `COc1cc2c(O)nc(O)nc2c(OC)c1OC` gave a melting point greater than 255 °C. Consider `Cn1cc(-c2cc(-c3cnc4[nH]ccc4c3)ccn2)n(-c2ccc(N3CCNCC3)c(C(F)(F)F)c2)c1=O`, for which the melting point amounted to 163 °C. For the compound `N#Cc1c(N2CCCCC2)c(C(=O)OCCO)c2ccccn2c1=O`, the melting point lay in the range of 140 to 141 °C. The same measure for `O=[N+]([O-])c1cccc2c1S(=O)(=O)C=C2`: 195 to 197 °C; for `O=c1ccn(CCO)c(C(O)c2cccnc2)c1OCc1ccccc1` (configuration not stated): 182 to 183 °C; for `COc1ccccc1C(=O)c1c(SC)nn(-c2c(Cl)cc(Cl)cc2Cl)c1N`: 200 to 202 °C.

`CC(=O)c1ccc2c(c1)C(Cl)Cc1ccc(F)cc1S2` (configuration not stated) returned a melting point of 112 to 114 °C. `[N-]=[N+]=C(C(=O)CCc1ccccc1)C(=O)CCc1ccccc1`: the melting point is 62.6 to 64 °C. The same measure for `CC(C)Oc1c(C(=O)Nc2ccccc2)oc2ccc(Cl)cc12`: 82 to 83 °C; for `CCCc1cc(=O)oc2c(C(=O)CC)c(O)cc(O)c12`: 244 to 246 °C; for `O=[N+]([O-])N=c1ccccn1Cc1ccc(Cl)nc1`: 209 to 212 °C. In turn, `Nc1cccc(C(=O)N(CCN2CCC(C(=O)c3ccc(F)cc3)CC2)c2ccc(F)cc2)c1` displayed a melting point of 159 to 162 °C.

The compound `O=C1c2ccccc2CN1C1CCN(c2ccc(C(OCc3ccccn3)c3ccccc3)cc2)CC1` (configuration not stated) returned a melting point of 149 to 151 °C. As to `CCCCCn1cc(C(=O)O)c(=O)cc1C`, the melting point was 126 °C. `CN(C)c1ccc(C2(c3ccc(N(C)C)cc3N(C)C)OC(=O)c3c(Cl)c(Cl)c(Cl)c(Cl)c32)c(N(C)C)c1` registered a melting point of 195 to 197 °C. Take `Oc1cc(/C=C/c2ccccn2)n(-c2ccccc2)n1`: the melting point lay in the range of 167 to 168 °C.

The term melting point denotes the temperature of the solid-liquid transition.

(Values after a melting point compilation (Tetko et al.; mined from patent text by program, amines drawn as free bases though some values may be those of a salt).)
